{
  "source": "patent US12011497B2",
  "about": "“Compounds, compositions containing same, and use thereof for promoting hair growth” (Molgenbio Co. Ltd., priority 2018, dated 2024)",
  "data": [
    {"test_system": "vibrissae tissue of mice", "experiment": "hair growth-promoting activity in cultured isolated mouse vibrissae", "type": "cell-based", "settings": "histology of cultured treated vibrissae, FIG. 58", "description": "Hair growth-promoting activity of the nine novel compounds of the present invention relative to that of the parent drug (FK506) was evaluated using vibrissae tissue of mice. The mouth and mouth tissue (whisker pad) around the mouth where thick hair grows were peeled off from each of 6- to 8-week-old experimental black mouse (C57BL/6 mouse) and treated with […] for a short time of several seconds. The treated mouth tissue was prepared in a state of being immersed in phosphate-buffered saline (PBS) supplemented with 1% penicillin/streptomycin (P/S) on ice. Surrounding subcutaneous fat tissue and connective tissue were removed using forceps and blades while observing the prepared mouth tissue using a dissecting microscope to expose vibrissae tissue. […] Based on the results, it was confirmed that the composition for promoting hair growth, including at least one of the nine novel compounds of the present invention as an active ingredient, had the effects on promoting hair growth as desired, and thus it was determined that the composition may be effectively used for preventing and treating hair loss.", "values": [
      {"compound": "CC[C@@H]1/C=C(\\C)C[C@H](C)C[C@H](OC)[C@H]2O[C@@](O)(CC(=O)N3CCCC[C@H]3C(=O)O[C@H](/C(C)=C/[C@@H]3CC[C@@H](O)[C@H](O)C3)[C@H](C)[C@@H](O)CC1=O)[C@H](C)C[C@@H]2OC", "note": "[9-deoxo-31-O-demethyl-FK520]", "expression of growth marker (Ki67) of cells compared to an untreated group": "overexpressed"}
    ]},
    {"test_system": "CD4+ T cells", "experiment": "in vitro T cell activity assay (CTV-stained CD4+ T cell proliferation, flow cytometry)", "type": "cell-based", "settings": "B6J mouse spleen CD4+ T cells activated with CD3/CD28 Dynabeads, 72 hours incubation, 0.01-1000 ng/mL, CTV intensity", "text": "(§1) The degrees of decreases in immunosuppressive activity of the nine novel compounds were identified by a known in vitro T cell activity assay (J. Immunol. 143:718-726, 1989).\n(§2) CD4+ T cell division is an indicator of immune response. When CD4+ T cells stained with Cell Trace™ Violet (CTV) proliferate by immune responses, the amount of CTV of each cell decreases, and thus the degrees of immunosuppressive activity were identified using this as an indicator.\n(§3) Single cells were isolated from spleen of 6- to 8-week-old B6J experimental mice, and CD4+ T cells were isolated using a MagniSort® Mouse CD4 T cell Enrichment Kit (eBioscience). CD4+ T cells were stained with a Cell Trace™ Violet (CTV) Cell Proliferation Kit (Molecular Probes), and FK506 or the nine novel compounds were added thereto in concentrations of 0.01 ng/mL, 0.1 ng/mL, 1 ng/mL, 10 ng/mL, 100 ng/mL, and 1000 ng/mL, respectively, followed by incubation for 72 hours. In order to activate T cells, Dynabeads® Mouse T-Activator CD3/CD28 (Gibco) was used. As a control, inactivated T cells were used. After incubation, CTV intensity was analyzed by flow cytometry.\n(§4) Table 12 below and FIG. 55 show the degrees of T cell proliferation based on CTV intensities measured using a flow cytometer, indicating the degrees of immunosuppressive activity of FK506 and the nine novel compounds.", "units": {"Immunosuppression IC50": "ng/mL"}, "values": [
      {"compound": "9-deoxo-31-O-demethyl-prolyl-FK506", "Immunosuppression IC50": 886.5},
      {"compound": "9-deoxo-prolyl-FK506 [reference compound]", "Immunosuppression IC50": 268.3},
      {"compound": "CCCC1C=C(C)CC(C)CC(OC)C2OC(O)(CC(=O)N3CCCCC3C(=O)OC(C(C)=CC3CCC(O)C(O)C3)C(C)C(O)CC1=O)C(C)CC2OC", "note": "(stereo not drawn) [9-deoxo-31-O-demethyl-36,37-dihydro-FK506]", "Immunosuppression IC50": 45.87},
      {"compound": "C=CC[C@@H]1/C=C(/C)C[C@H](C)C[C@H](OC)[C@H]2O[C@@](O)(CC(=O)N3CCCC[C@H]3C(=O)O[C@H](/C(C)=C/[C@@H]3CC[C@@H](O)[C@H](O)C3)[C@H](C)[C@@H](O)CC1=O)[C@H](C)C[C@@H]2OC", "note": "[9-deoxo-31-O-demethyl-FK506, reference compound]", "Immunosuppression IC50": 15.09},
      {"compound": "CC[C@@H]1/C=C(\\C)C[C@H](C)C[C@H](OC)[C@H]2O[C@@](O)(CC(=O)N3CCCC[C@H]3C(=O)O[C@H](/C(C)=C/[C@@H]3CC[C@@H](O)[C@H](O)C3)[C@H](C)[C@@H](O)CC1=O)[C@H](C)C[C@@H]2OC", "note": "[9-deoxo-31-O-demethyl-FK520]", "Immunosuppression IC50": 258.1},
      {"compound": "CO[C@H]1C[C@@H](C)C/C(C)=C/[C@@H](C)C(=O)C[C@H](O)[C@@H](C)[C@@H](/C(C)=C/[C@@H]2CC[C@@H](O)[C@H](O)C2)OC(=O)[C@@H]2CCCCN2C(=O)C[C@]2(O)O[C@H]1[C@@H](OC)C[C@H]2C", "note": "[9-deoxo-31-O-demethyl-FK523]", "Immunosuppression IC50": 3378},
      {"compound": "CCCC1C=C(C)CC(C)CC(OC)C2OC(O)(CC(=O)N3CCCCC3C(=O)OC(C(C)=CC3CCC(O)C(OC)C3)C(C)C(O)CC1=O)C(C)CC2OC", "note": "(stereo not drawn) [9-deoxo-36,37-dihydro-FK506]", "Immunosuppression IC50": 14.1},
      {"compound": "C=CC[C@@H]1/C=C(\\C)C[C@H](C)C[C@H](OC)[C@H]2O[C@@](O)(CC(=O)N3CCCC[C@H]3C(=O)O[C@H](/C(C)=C/C3CC[C@@H](O)[C@H](OC)C3)[C@H](C)[C@H](O)CC1=O)[C@H](C)C[C@@H]2OC", "note": "(stereo partly drawn) [9-deoxo-FK506, reference compound]", "Immunosuppression IC50": 0.513},
      {"compound": "CCC1C=C(C)CC(C)CC(OC)C2OC(O)(CC(=O)N3CCCCC3C(=O)OC(C(C)=CC3CCC(O)C(OC)C3)C(C)C(O)CC1=O)C(C)CC2OC", "note": "(stereo not drawn) [9-deoxo-FK520]", "Immunosuppression IC50": 24.98},
      {"compound": "COC1CC(C=C(C)C2OC(=O)C3CCCCN3C(=O)CC3(O)OC(C(OC)CC(C)CC(C)=CC(C)C(=O)CC(O)C2C)C(OC)CC3C)CCC1O", "note": "(stereo not drawn) [9-deoxo-FK523]", "Immunosuppression IC50": 1985},
      {"compound": "CCC[C@@H]1/C=C(\\C)C[C@H](C)C[C@H](OC)[C@H]2O[C@@](O)(C(=O)C(=O)N3CCCC[C@H]3C(=O)O[C@H](/C(C)=C/[C@@H]3CC[C@@H](O)[C@H](O)C3)[C@H](C)[C@@H](O)CC1=O)[C@H](C)C[C@@H]2OC", "note": "[31-O-demethyl-36,37-dihydro-FK506]", "Immunosuppression IC50": 1.723},
      {"compound": "C=CCC1/C=C(\\C)CC(C)CC(OC)C2OC(O)(C(=O)C(=O)N3CCCCC3C(=O)OC(/C(C)=C/C3CCC(O)C(O)C3)C(C)C(O)CC1=O)C(C)CC2OC", "note": "(stereo not drawn) [31-O-demethyl-FK506, reference compound]", "Immunosuppression IC50": 0.246},
      {"compound": "CC[C@@H]1/C=C(\\C)C[C@H](C)C[C@H](OC)[C@H]2O[C@@](O)(C(=O)C(=O)N3CCCC[C@H]3C(=O)O[C@H](/C(C)=C/[C@@H]3CC[C@@H](O)[C@H](O)C3)[C@H](C)[C@@H](O)CC1=O)[C@H](C)C[C@@H]2OC", "note": "[31-O-demethyl-FK520]", "Immunosuppression IC50": 3.273}
    ]},
    {"test_system": "CD4+ T cells", "experiment": "in vitro T cell activity assay (CTV-stained CD4+ T cell proliferation, flow cytometry)", "type": "cell-based", "settings": "B6J mouse spleen CD4+ T cells activated with CD3/CD28 Dynabeads, 72 hours incubation, 0.01-1000 ng/mL, CTV intensity; read-out: Immunosuppression IC50", "text": "as §1, §2, §3, §4", "units": {"IC50": "ng/mL"}, "values": [
      {"compound": "C=CC[C@@H]1/C=C(\\C)C[C@H](C)C[C@H](OC)[C@H]2O[C@@](O)(C(=O)C(=O)N3CCCC[C@H]3C(=O)O[C@H](/C(C)=C/[C@@H]3CC[C@@H](O)[C@H](OC)C3)[C@H](C)[C@@H](O)CC1=O)[C@H](C)C[C@@H]2OC", "note": "[FK506, reference compound]", "IC50": 0.027}
    ]}
  ]
}
